From patent US20220055989A1, “CONDENSED PYRROLES AS NOVEL BROMODOMAIN INHIBITORS” (ALBERT LUDWING UNIVERSITÄT FREIBURG, priority 2018, published 2022)

How the values were obtained:
Type in all cases: binding
BRD2(1) = biological target: T1, BRD2(1) (Homo sapiens, UniProt P25440); test: BROMOscan Kd determination BRD2(1)
T1 construct: T7 phage strains displaying bromodomains were grown in parallel; made in house; host or cells: T7 phage grown in an E. coli host derived from the BL21 strain
Protocol: (§1) Bromodomain profiling was carried out on the basis of BROMOscan™. This platform accounted for the indirect determination of the dissociation constants between 19 bromodomains and the compound of formula (13), by binding competition against a reference immobilized ligand. Compounds that bind the bromodomain prevent its binding to the immobilized ligand thus reducing the amount of protein captured. […] Hits are identified by measuring the amount of bromodomain captured in test versus control samples. Bromodomain assays for Kd determination: T7 phage strains displaying bromodomains were grown in parallel in 24-well blocks in an E. coli host derived from the BL21 strain. E. coli were grown to log-phase and infected with T7 phage from a frozen stock (multiplicity of infection=0.4) and incubated with shaking at 32° C. until lysis (90-150 minutes). The lysates were centrifuged (5,000×g) and filtered (0.2 μm) to remove cell debris. […] Kds were determined using an 11-point 3-fold compound dilution series with one DMSO control point. […] The bromodomain concentration in the eluates was measured by qPCR. […] Most Kds were determined using a compound top concentration=10,000 nM. […] Binding Constants (Kds): Binding constants (Kds) were calculated with a standard dose-response curve using the Hill equation: The Hill Slope was set to −1. […]

BRD3(1) = biological target: T2, BRD3(1) (Homo sapiens, UniProt Q15059); test: BROMOscan Kd determination BRD3(1)
T2 construct: T7 phage strains displaying bromodomains were grown in parallel; made in house; host or cells: T7 phage grown in an E. coli host derived from the BL21 strain
T2 sequence (Q15059 34-140 limits assumed): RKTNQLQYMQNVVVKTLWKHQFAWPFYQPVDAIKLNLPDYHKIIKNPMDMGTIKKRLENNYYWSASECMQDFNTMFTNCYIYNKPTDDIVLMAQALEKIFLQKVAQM
Protocol: as §1

BRD3(2) = biological target: T3, BRD3(2) (Homo sapiens, UniProt Q15059); test: BROMOscan Kd determination BRD3(2)
T3 construct: T7 phage strains displaying bromodomains were grown in parallel; made in house; host or cells: T7 phage grown in an E. coli host derived from the BL21 strain
T3 sequence (Q15059 306-415 limits assumed): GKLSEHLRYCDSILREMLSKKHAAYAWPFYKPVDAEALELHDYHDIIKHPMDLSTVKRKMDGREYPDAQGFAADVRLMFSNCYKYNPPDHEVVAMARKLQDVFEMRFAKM
Protocol: as §1

BRD4(2) = biological target: T4, BRD4(2) (Homo sapiens, UniProt O60885); test: BROMOscan Kd determination BRD4(2)
T4 construct: T7 phage strains displaying bromodomains were grown; host or cells: T7 phage in E. coli derived from BL21
Protocol: as §1

BRDT(2) = biological target: T5, BRDT(2) (Homo sapiens, UniProt Q58F21); test: BROMOscan Kd determination BRDT(2)
T5 construct: T7 phage strains displaying bromodomains were grown; host or cells: T7 phage in E. coli derived from BL21
Protocol: as §1

bromodomains = test: Bromodomain profiling (BROMOscan), summary over the panel; details: compared to the compound of formula (23); bromodomains of Table 3
Protocol: Bromodomain profiling was carried out on the basis of BROMOscan™. This platform accounted for the indirect determination of the dissociation constants between 19 bromodomains and the compound of formula (13), by binding competition against a reference immobilized ligand.
Compounds that bind the bromodomain prevent its binding to the immobilized ligand thus reducing the amount of protein captured. […] Hits are identified by measuring the amount of bromodomain captured in test versus control samples.
Bromodomain assays for Kd determination: T7 phage strains displaying bromodomains were grown in parallel in 24-well blocks in an E. coli host derived from the BL21 strain. E. coli were grown to log-phase and infected with T7 phage from a frozen stock (multiplicity of infection=0.4) and incubated with shaking at 32° C. until lysis (90-150 minutes). The lysates were centrifuged (5,000×g) and filtered (0.2 μm) to remove cell debris. […] Kds were determined using an 11-point 3-fold compound dilution series with one DMSO control point. […] The bromodomain concentration in the eluates was measured by qPCR.
Bromodomain assays for % Ctrl determination: T7 phage strains displaying bromodomains were grown in parallel in 24-well blocks in an E. coli host derived from the BL21 strain. […] The bromodomain concentration in the eluates was measured by qPCR.

T1 sequence (P25440 74-180 limits assumed): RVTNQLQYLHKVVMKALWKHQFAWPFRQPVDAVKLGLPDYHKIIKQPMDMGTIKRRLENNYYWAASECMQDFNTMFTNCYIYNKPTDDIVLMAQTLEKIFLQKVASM

SMILES | Kd (BRD2(1)) [nM] | Kd (BRD3(1)) [nM] | Kd (BRD3(2)) [nM] | Kd (BRD4(2)) [nM] | Kd (BRDT(2)) [nM] | selectivity for certain bromodomains evaluated (bromodomains)
COc1ccc(S(=O)(=O)N2CCOCC2)cc1NC(=O)c1[nH]c(C)c2c1CCCCC2=O [Compound 13, N-(2-methoxy-5-(morpholinosulfonyl)phenyl)-3-methyl-4-oxo-2,4,5,6,7,8-hexahydrocyclohepta[c]pyrrole-1-carboxamide] | 45 | 100 | 140 | 220 | 1000 | –
Cc1[nH]c(-c2cc(N)ccc2Cl)c2c1C(=O)CCCC2 [Compound 23] | 130 | 170 | 330 | 270 | 620 | –
CCCCc1[nH]c(-c2cc(N)ccc2Cl)c2c1C(=O)CCCC2 [Compound 27, 1-(5-Amino-2-chlorophenyl)-3-butyl-5,6,7,8-tetrahydrocyclohepta[c]pyrrol-4(2H)-one] | – | – | – | – | – | higher selectivity for certain bromodomains
CCCc1[nH]c(-c2cc(N)ccc2Cl)c2c1C(=O)CCCC2 [Compound 26, 1-(5-Amino-2-chlorophenyl)-3-propyl-5,6,7,8-tetrahydrocyclohepta[c]pyrrol-4(2H)-one] | – | – | – | – | – | higher selectivity for certain bromodomains
